The source of these data is BindingDB's records for doi:10.1007/s10822-022-00478-x (Roche Innovation Center Basel, F. Hoffmann-La Roche Ltd., 2022).

The target in the test is cAMP and cAMP-inhibited cGMP 3',5'-cyclic phosphodiesterase 10A (Homo sapiens, UniProt Q9Y233). The test can be described thus: PDE10A assay. The essentials:
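Human PDE10A (2 ng/well) preincubated 15 min RT with compound in HEPES pH 7.5, 10 mM MgCl2, BSA, then reacted 15 min with 50 nM [3H]cGMP/cGMP substrate. Stopped with Y-Si SPA beads; bound radioactivity counted, IC50 from four-parameter logistic, pIC50 = −log10(IC50).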

`Cc1nn2ccc(CCc3nc(-c4ccccc4)cn3C)nc2c1C` [US10399985, Example 16]: the midpoint of inhibition, the IC50, lay at 4.89 nM.
Consider `CN(C)c1nc(OCc2cccc(N3CCCC3)n2)nc2ccc(Cl)cc12` [6-chloro-n,n-dimethyl-2-((6-(pyrrolidin-1-yl)pyridin-2-yl)methoxy)quinazolin-4-amine], for which 7.71 nM corresponded to half-maximal inhibition (IC50).
`Cn1ncc(C(=O)N2CCC2)c1C(=O)Nc1ccn2nc(-c3cccc(F)c3)nc2c1` [Roche-Dataset for PDE10A, Compound 140]: inhibition was half-maximal at 1.06 nM (IC50).
The value for `O=C(Nc1ccn(CCO)n1)c1nc(C2CC2)ccc1Nc1cncnc1` [Roche-Dataset for PDE10A, Compound 597] was 50 nM; that for `COc1ncccc1C(=O)Nc1cc(-c2ccccn2)nn1C` [Roche-Dataset for PDE10A, Compound 921] was 9730 nM; that for `CN(C)C(=O)c1cc(NC(=O)c2nc(C3CC3)ccc2Nc2cncnc2)nn1C` [Roche-Dataset for PDE10A, Compound 1005] was 675 nM.
`CNC(=O)c1cc(C(C)C)ccc1NC(=O)c1nc(C2CC2)cnc1Nc1cncnc1` [US8703768, 208]: the 50% inhibitory concentration (IC50) (commonly the concentration that gives 50% inhibition) amounted to 1.15 nM.
For `O=C(NCc1cccc(F)c1)c1nc(C2CC2)cnc1Nc1cncnc1` [Roche-Dataset for PDE10A, Compound 837], the 50% inhibitory concentration (IC50) turned out to be 499 nM.
The value for `CN(C)C(=O)Cn1ccc(NC(=O)c2nc(C3CC3)cnc2Nc2cncnc2)n1` [Roche-Dataset for PDE10A, Compound 882] was 32 nM.
The result for `O=C(NCCC1CCOCC1)c1nc(C2CC2)cnc1Nc1cncnc1` [Roche-Dataset for PDE10A, Compound 915] reads 1470 nM; that for `Cn1ncc(C(=O)N2CCC2)c1C(=O)Nc1cc(-c2ccccc2Cl)n[nH]1` [Roche-Dataset for PDE10A, Compound 958], 1290 nM; that for `Cc1nc(CCNC(=O)c2nc(C3CC3)ccc2Nc2cncnc2)n[nH]1` [Roche-Dataset for PDE10A, Compound 986], 270 nM.
Turning to `Cc1nn(C)c2nc(OCc3nc(-c4ccccc4)cn3C)ncc12` [Roche-Dataset for PDE10A, Compound 396], inhibition was half-maximal at 107 nM (IC50).
The value for `COc1nc2cc(NC(=O)c3c(C(=O)N4CCC4)cnn3C)ccn2n1` [Roche-Dataset for PDE10A, Compound 745] was 6550 nM; that for `O=C(Nc1ccnn1-c1ccccn1)c1nc(C2CC2)ccc1Nc1cncnc1` [Roche-Dataset for PDE10A, Compound 435] was 3.43 nM.
The value for `O=C(NCc1nccn1Cc1ccccc1)c1nc(C2CC2)cnc1Nc1cncnc1` [Roche-Dataset for PDE10A, Compound 631] was 273 nM.
The result for `Cn1ncc(C(=O)NC2COC2)c1C(=O)N[C@@H]1CCn2cc(-c3ccccc3)nc2C1` [Roche-Dataset for PDE10A, Compound 302] reads 181 nM; that for `Cn1ncc(C(=O)N2CCC2)c1C(=O)Nc1ccn(C2CCC2)n1` [Roche-Dataset for PDE10A, Compound 1093], 496 nM.
For `CCc1cc(C(F)(F)F)c2nc(CCc3nc(N4CCCC4)nn3C)nn2c1C` [Roche-Dataset for PDE10A, Compound 171], the 50% inhibitory concentration (IC50) worked out at 3.37 nM.
As for `O=C(NCCN1CCOCC1=O)c1nc(C2CC2)cnc1Nc1cncnc1` [Roche-Dataset for PDE10A, Compound 728], the IC50 amounted to 2560 nM.
The value for `CN(C)C(=O)Cc1cccc(NC(=O)c2nc(C3CC3)cnc2Nc2cncnc2)c1` [Roche-Dataset for PDE10A, Compound 693] was 97 nM; that for `Cc1nc(C)n2nc(/C=C/c3nc(N4CCCC4)nn3C)nc2c1C` [Roche-Dataset for PDE10A, Compound 293] was 9.16 nM.
Consider `O=C(Nc1ccnc(Cl)c1)c1ccc2cc(-c3ccccc3)nn2c1` [Roche-Dataset for PDE10A, Compound 310], for which the IC50 was 37 nM.
Molecule `Cn1cc(-c2ccccc2)nc1COc1ncc(Cl)nc1C(=O)NCc1ccccc1` [Roche-Dataset for PDE10A, Compound 297] showed an IC50 of 134 nM.
`O=C(NC1(c2ccc(Cl)cc2)CCC1)c1nc(C2CC2)cnc1Nc1cncnc1` [Roche-Dataset for PDE10A, Compound 1074]: the IC50 is 863 nM.
On to `CCCn1nc(-c2ccccn2)cc1NC(=O)c1nc(C2CC2)ccc1Nc1cncnc1` [US8470820, 23], for which 1.68 nM corresponded to half-maximal inhibition (IC50).
The result for `CCOC(=O)c1cnn(C)c1C(=O)Nc1ccn2nc(-c3ccnc(F)c3)nc2c1` [Roche-Dataset for PDE10A, Compound 280] reads 790 nM.
The value for `Cc1ccc2nc(/C=C/c3nc(N4CCCC4)nn3C)nn2c1C` [Roche-Dataset for PDE10A, Compound 375] was 8.73 nM; that for `O=C(Nc1ccc2cc(-c3ccccc3)nn2c1)c1ccno1` [Roche-Dataset for PDE10A, Compound 679] was 2360 nM; that for `Cn1nc(-c2ccccn2)cc1NC(=O)c1nc(C2CC2)ccc1Nc1cncnc1` [US8470820, 8] was 3.23 nM.
The result for `CCN(C)C(=O)c1cnn(C)c1C(=O)Nc1ccn2cc(-c3cccc(OCC(=O)OC)c3)nc2n1` [Roche-Dataset for PDE10A, Compound 20] reads 7.93 nM.
In turn, `Cc1cnc(C)n2nc(/C=C/c3nc(N4CCCC4)n(C)n3)nc12` [Roche-Dataset for PDE10A, Compound 443] registered an IC50 of 20 nM.
For `O=C(Nc1ccn(C2CCCC2)n1)c1nc(C2CC2)ccc1Nc1cncnc1` [Roche-Dataset for PDE10A, Compound 580], 5.65 nM corresponded to half-maximal inhibition (IC50).
As to `CNC(=O)c1cc(Cl)c(C)n2nc(CCc3nc(N4CCCC4)nn3C)nc12` [Roche-Dataset for PDE10A, Compound 273], half-maximal inhibition (IC50) was put at 6160 nM.
In turn, `CCn1nc(CCc2nc3c(C)ncc(C)n3n2)nc1N1CCCC1` [Roche-Dataset for PDE10A, Compound 533] registered an IC50 of 29 nM.
The result for `O=C(Nc1ccn(CCF)n1)c1nc(C2CC2)ccc1Nc1cncnc1` [Roche-Dataset for PDE10A, Compound 698] reads 9.84 nM; that for `Cn1ccc(NC(=O)c2c(C(=O)N3CCC3)cnn2C)n1` [Roche-Dataset for PDE10A, Compound 1137], 1430 nM; that for `CC1(CNC(=O)c2nc(C3CC3)cnc2Nc2cncnc2)COC1` [Roche-Dataset for PDE10A, Compound 1092], 2980 nM.
The value for `CNC(=O)c1cc2[nH]c(-c3ccccc3)nc2cc1NC(=O)c1ccn(C)n1` [Roche-Dataset for PDE10A, Compound 526] was 111 nM; that for `O=C(c1nc(C2CC2)cnc1Nc1cncnc1)N1CCN(CCc2ccccc2)CC1` [Roche-Dataset for PDE10A, Compound 1015] was 10000 nM.
`CS(=O)(=O)CCNC(=O)c1nc(C2CC2)cnc1Nc1cncnc1` [Roche-Dataset for PDE10A, Compound 1061]: the midpoint of inhibition, the IC50, lay at 1630 nM.
In the case of `Cc1c(Cl)cc(OCC(F)(F)F)c2nc(CCc3nc(N4CCCC4)nn3C)nn12` [Roche-Dataset for PDE10A, Compound 119], inhibition was half-maximal at 0.5 nM (IC50).
The value for `COCCN(C)C(=O)c1cnn(C)c1C(=O)Nc1cc2nc(-c3ccccc3)nn2cn1` [Roche-Dataset for PDE10A, Compound 304] was 0.79 nM; that for `O=C(Nc1ccn2nc(-c3ccccc3)nc2c1)c1ccc(Cl)nn1` [Roche-Dataset for PDE10A, Compound 897] was 10000 nM.
